Assay results taken from patent publication US20040229230A1, “Method for gene isolation by Cre-trap cloning” (priority 2002, published 2004).

Key:
[1] = test system: parent BW cell line (BW5147 murine thymoma); experiment: Culture of parent BW cell line in ganciclovir (HSVTK activity assessment); assay type: cell-based; conditions: 5 μM ganciclovir; parent BW cell line without HSVTK
Protocol: (§1) BW subclones with varying levels of GFPCre expression were tested for functional Cre recombinase and HSVTK activity. The pCT.1 (pCT.1^AMP) vector was transiently transfected into each cell line followed by recovery and analysis of plasmid configuration (pCT.1^AMP vs. pCT.1^CAT). Maximal conversion would result in equimolar ratios of pCT.1^AMP and pCT.1^CAT due to the reversible nature of the reaction. […] The kinetics of conversion in cell lines expressing different levels of GFPCre was evaluated. To assess HSVTK activity, all of the cell lines were cultured in 5 μM ganciclovir. […] No spontaneous revertants were isolated, which, given the culture conditions, puts the spontaneous reversion rate at <10^−8.

[2] = test system: GFPCre:IRES:HSVTK expressing clones (BW5147 subclones); experiment: Culture of GFPCre:IRES:HSVTK expressing BW clones in ganciclovir (HSVTK activity assessment); assay type: cell-based, murine; conditions: 5 μM ganciclovir
Text: 2.1 GFPCre:IRES:HSVTK cassette function: A retroviral vector was generated with the cDNA encoding the GFPCre fusion protein followed by an […] ribosomal entry site (IRES) and the cDNA encoding HSVTK (FIG. 2). In addition, the upstream activating sequence (UAS) which binds the Gal4 transcriptional trans-activator was cloned upstream of the GFPCre cDNA (FIG. 2). The BW5147 thymoma was infected with this retrovirus, and subclones (BW-1, 5, 41 and 50) expressing different levels of the GFPCre fusion protein were identified by flow cytometry (FIG. 3).
as §1

Nc1nc(O)c2ncn(COC(CO)CO)c2n1 [ganciclovir]
growth in media with ganciclovir [1]: normal growth
growth/survival in media with ganciclovir [2]: all died
